In brackets after ≈: the same amount, converted by molar mass.
conditions: buffer; pH 7.4; 200.0 µM

Compound | solubility kinetic
CNS(=O)(=O)c1cccc(C(=O)OCC(=O)N2CCN(C(=O)c3ccco3)CC2)c1 | > 65.3 µg/mL
Cc1cc(C)c2c(c1)N[C@H](c1cccs1)[C@@H]1CCO[C@H]21 | 1.7 µg/mL (≈ 5.96 µM)
Cc1ncc([N+](=O)[O-])n1S(=O)(=O)c1cc(Cl)ccc1Cl | 40.3 µg/mL (≈ 120 µM)
O=C(NCCc1ccc(Cl)cc1)c1ccc2ccccc2n1 | 5.9 µg/mL (≈ 19 µM)
CN(C)S(=O)(=O)c1cccc(NC(=O)CCNC(=O)Nc2ccccc2)c1 | > 58.6 µg/mL
O=C(NCCO)/C(=C/c1ccco1)NC(=O)c1ccco1 | 43.3 µg/mL (≈ 149 µM)
N#C/C(=C\c1ccc(-c2ccccc2[N+](=O)[O-])o1)C(N)=O | 2.2 µg/mL (≈ 7.77 µM)
CCOC(=O)/C(C#N)=C/Nc1cc(F)ccc1C | 3.2 µg/mL (≈ 12.9 µM)
COc1cc(CN2CCNCC2)cc(OC)c1OC.Cl | 23.1 µg/mL
CCC(C)NCCCOc1ccc(C)cc1OC (stereo unspecified) | 35.1 µg/mL (≈ 140 µM)
Cc1nccn1CC1CCc2c(c3ccccc3n2C)C1=O.Cl (stereo unspecified) | 47.7 µg/mL
O=C(CCN1C(=O)c2ccccc2S1(=O)=O)Nc1ccccc1F | > 52.3 µg/mL
O=C(CCC(=O)Nc1ccccc1)N/N=C/c1cccnc1 | > 44.4 µg/mL
N/C(CS(=O)(=O)c1ccc(F)cc1)=N\O | > 34.8 µg/mL
CC(=O)c1ccc(N2CCCCC2)c(F)c1 | 12.1 µg/mL (≈ 54.7 µM)
NC(=O)NC(=O)COC(=O)c1ccc(OC(F)F)cc1 | 9.9 µg/mL (≈ 34.4 µM)
CCOC(=O)C1CCCN(Cc2ccc(-c3ccccc3)cc2)C1 (stereo unspecified) | 11.9 µg/mL (≈ 36.8 µM)
O=C(COC(=O)Cc1c(F)cccc1Cl)NC(=O)Nc1ccccc1F | 1.9 µg/mL (≈ 4.96 µM)
S=c1sc2c(Cl)ncnc2n1-c1ccccc1 | 8.3 µg/mL (≈ 29.7 µM)
CCc1cc(C(=O)NCC(C)(C)N2CCOCC2)sc1C | > 46.6 µg/mL
O=C(CNc1ccccc1C(=O)O)c1ccccc1 | 36.3 µg/mL (≈ 142 µM)

Compound | solubility kinetic
CCc1ccc(OCCOC(=O)Nc2ccccc2)cc1 | < 0.6 µg/mL
COc1ccc(CNC(=O)c2cc3ccccc3oc2=O)cc1 | < 0.7 µg/mL
CN1CCN(c2ncnc(Cl)c2N)CC1 | > 34.2 µg/mL
CCOc1ccc(S(=O)(=O)N(C)c2ccc(OCC(=O)NCC3CCCCC3)cc2)cc1 | 3.1 µg/mL (≈ 6.73 µM)
COc1ccc(NC(=O)C2C3C=CC(C3)C2C(=O)O)cc1 (stereo unspecified) | > 43.1 µg/mL
Cn1c(SCC(=O)Nc2ccc3c(c2)OCCO3)nnc1-c1ccncc1 | > 57.5 µg/mL
NC(=O)c1ccccc1NC(=O)COC(=O)CSCc1cccc(Cl)c1 | 10.8 µg/mL (≈ 27.5 µM)
O=C(Nc1nncs1)C1CC(=O)N(C2CCCC2)C1 (stereo unspecified) | > 42.1 µg/mL
O=C(Nc1ccccn1)c1ccc(-c2ccccc2)cc1 | 0.9 µg/mL (≈ 3.28 µM)
OCCCNc1nc(-c2ccccc2)nc2c1oc1ccccc12 | 1.3 µg/mL (≈ 4.07 µM)
Cc1cccc(C(=O)OC2CCCN(C)C2)c1C.Cl (stereo unspecified) | 36.9 µg/mL
CC(C)CC(=O)NC(=S)Nc1ccccc1N1CCCC1 | 4 µg/mL (≈ 13.1 µM)
COc1cccc(NC2=NCCCCC2)c1 | > 32.7 µg/mL
Cc1cccc2c1NC(=O)C2(O)N1CCCC(C)C1 (stereo unspecified) | > 39.1 µg/mL
O=C(O)CCn1c(=O)oc2cc(S(=O)(=O)N3CCCC3)ccc21 | > 51.1 µg/mL
Cc1nc(N=C(N)N)nc2c(C)cccc12 | 29.8 µg/mL (≈ 138 µM)
O=C(O)c1ccccc1C(=O)Nc1ccc(Oc2ccccc2)cc1 | > 50 µg/mL
O=S1(=O)N=C2CCCCCN2C(c2ccc(F)cc2)N1 (stereo unspecified) | > 44.6 µg/mL
Cc1ccc(C(=O)Nc2nc(C)c(C(=O)N(C)C)s2)o1 | 40.3 µg/mL (≈ 137 µM)
Cc1nnc(SC(C)C(=O)NCC2CCCO2)s1 (stereo unspecified) | > 43.1 µg/mL
Cc1nnc(NC(=O)CCNC(=O)c2ccccc2Cl)s1 | > 48.7 µg/mL

Compound | solubility kinetic
Cc1cccc(N2C(=O)CC(c3ccc(F)cc3)C3=C2COC3=O)c1 (stereo unspecified) | > 50.6 µg/mL
Cc1ccc2c(c1C)NC(=O)CC(c1ccccc1O)=N2 | 0.6 µg/mL (≈ 2.14 µM)
Cc1ccc(CC(=O)NC2CCCc3ccccc32)cc1C (stereo unspecified) | 3.2 µg/mL (≈ 10.9 µM)
Cc1ccc(N/C=C2\CCCCC2=O)nc1 | 31.6 µg/mL (≈ 146 µM)
COc1cccc(C(=O)N2CCN(C(=O)C3CC3)CC2)c1 | 40.7 µg/mL (≈ 141 µM)
COc1cccc(C(=O)Nc2cc3c4c(c2)CC(=O)N4CCC3)c1 | > 48.4 µg/mL
CC(NCc1ccccc1Cl)C(=O)Nc1ccc(C#N)cc1 (stereo unspecified) | 44.5 µg/mL (≈ 142 µM)
CN1C(=O)/C(=C/C=C2\SCCN2C)OC1=S | 4.4 µg/mL (≈ 17.2 µM)
Cc1ccc(NC(=O)c2sc(C)nc2C)c(C)c1 | > 39.1 µg/mL
CCn1c(/N=C/c2ccccc2O)nc2ccccc21 | 36.9 µg/mL (≈ 139 µM)
O=C(N/N=C/c1ccccc1C(F)(F)F)c1ccc(O)cc1 | > 46.2 µg/mL
Cc1cc(C)c(S(=O)(=O)Cc2ccccc2)c(Cl)n1 | > 44.4 µg/mL
O=C(/C=C/Nc1nccs1)C(F)(F)Cl | 33.6 µg/mL (≈ 141 µM)
O=C(NCCO)Nc1ccc(Cl)cc1 | 29 µg/mL (≈ 135 µM)
Cc1cccc(NC(=O)CCS(=O)(=O)c2ccc(Cl)cc2)c1 | 5.5 µg/mL (≈ 16.3 µM)
O=C(Nc1ccc(Cl)c(S(=O)(=O)N2CCOCC2)c1)c1ccncc1 | > 57.3 µg/mL
N#Cc1nc(-c2ccccc2F)oc1N1CCCCC1 | 2.3 µg/mL (≈ 8.48 µM)
O=C(COC(=O)C1CCN(S(=O)(=O)c2cccs2)CC1)Nc1ccc(F)cc1Cl | 17.7 µg/mL (≈ 38.4 µM)
COc1cc(C)ccc1OCC(=O)OCC(=O)c1[nH]c(C)c(C(C)=O)c1C | 13.5 µg/mL (≈ 36.2 µM)
